Measured values taken from ChEMBL document CHEMBL3407397, “Effect of size and N-terminal residue characteristics on bacterial cell penetration and antibacterial activity of the proline-rich peptide Bac7” (J Med Chem, 2015).
Values after ≈ are worked out from the molar mass of the structure shown. Non-standard residues stand in square brackets, D forms with d. Residues, ends and D or L forms follow the SMILES beside them. *: point of attachment. Arg(NO2) = N=C(NCCC[C@H](N)C(=O)O)N[N+](=O)[O-]; Gly(N-(CH2)3-guanidino) = N=C(N)NCCCNCC(=O)O; X1 = F[B-]1(F)n2c(ccc2*)C=C2C=CC=[N+]21

Key:
Assay type in all cases: functional
[1] = test system: Escherichia coli; test: Antimicrobial activity against Escherichia coli ATCC 25922 incubated for 18 hrs at 37 degC by broth microdilution method; details: ATCC 25922, 18 h
[2] = test system: Escherichia coli; test: Antimicrobial activity against Escherichia coli HB101 incubated for 18 hrs at 37 degC by broth microdilution method; details: HB101, 18 h
[3] = test system: Escherichia coli; test: Antimicrobial activity against O-antigen lacking LPS containing wild type Escherichia coli BW25113 incubated for 18 hrs at 37 degC by broth microdilution method; details: BW25113, 18 h
[4] = test system: Escherichia coli; test: Antimicrobial activity against delta-waaG deletion mutant containing Escherichia coli BW25113 incubated for 18 hrs at 37 degC by broth microdilution method; details: BW25113, 18 h
[5] = test system: Escherichia coli; test: Antimicrobial activity against delta-sbmA deletion mutant containing Escherichia coli BW25113 incubated for 18 hrs at 37 degC by broth microdilution method; details: BW25113, 18 h

Compound	MIC [1] [µM]	MIC [2] [µM]	MIC [3] [µM]	MIC [4] [µM]	MIC [5] [µM]
CC[C@H](C)[C@H](NC(=O)[C@H](CCCNC(=N)N)NC(=O)[C@@H](N)CCCNC(=N)N)C(=O)N[C@@H](CCCNC(=N)N)C(=O)N1CCC[C@H]1C(=O)N[C@@H](CCCNC(=N)N)C(=O)N1CCC[C@H]1C(=O)N1CCC[C@H]1C(=O)N[C@@H](CCCNC(=N)N)C(=O)N[C@@H](CC(C)C)C(=O)N1CCC[C@H]1C(=O)N[C@@H](CCCNC(=N)N)C(=O)N1CCC[C@H]1C(=O)N[C@@H](CCCNC(=N)N)C(=O)N1CCC[C@H]1C(=O)N[C@@H](CCCNC(=N)N)C(=O)N[C@@H](CSc1ccc2n1[B-](F)(F)[N+]1=CC=CC1=C2)C(=O)O (H-RRIRPRPPRLPRPRPRC(X1)-OH)	0.5 (≈ 1.18 µg/mL)	0.5 (≈ 1.18 µg/mL)			
CC[C@H](C)[C@H](NC(=O)[C@H](CCCNC(=N)N)NC(=O)[C@@H](N)CCCN/C(N)=N\[N+](=O)[O-])C(=O)N[C@@H](CCCNC(=N)N)C(=O)N1CCC[C@H]1C(=O)N[C@@H](CCCNC(=N)N)C(=O)N1CCC[C@H]1C(=O)N1CCC[C@H]1C(=O)N[C@@H](CCCNC(=N)N)C(=O)N[C@@H](CC(C)C)C(=O)N1CCC[C@H]1C(=O)N[C@@H](CCCNC(=N)N)C(=O)N1CCC[C@H]1C(=O)N[C@@H](CCCNC(=N)N)C(=O)N1CCC[C@H]1C(=O)N[C@@H](CCCNC(=N)N)C(=O)N1CCC[C@H]1C(=O)N[C@@H](CC(C)C)C(=O)N1CCC[C@H]1C(=O)N[C@@H](Cc1ccc(O)cc1)C(=O)N1CCC[C@H]1C(=O)N[C@@H](CCCNC(=N)N)C(=O)N1CCC[C@H]1C(=O)O (H-[Arg(NO2)]RIRPRPPRLPRPRPRPLPYPRP-OH)	4 (≈ 11.8 µg/mL)		4 (≈ 11.8 µg/mL)	1 (≈ 2.94 µg/mL)	8 (≈ 23.5 µg/mL)
CC[C@H](C)[C@H](NC(=O)CN(CCCNC(=N)N)C(=O)CNCCCNC(=N)N)C(=O)N[C@@H](CCCNC(=N)N)C(=O)N1CCC[C@H]1C(=O)N[C@@H](CCCNC(=N)N)C(=O)N1CCC[C@H]1C(=O)N1CCC[C@H]1C(=O)N[C@@H](CCCNC(=N)N)C(=O)N[C@@H](CC(C)C)C(=O)N1CCC[C@H]1C(=O)N[C@@H](CCCNC(=N)N)C(=O)N1CCC[C@H]1C(=O)N[C@@H](CCCNC(=N)N)C(=O)N1CCC[C@H]1C(=O)N[C@@H](CCCNC(=N)N)C(=O)N1CCC[C@H]1C(=O)N[C@@H](CC(C)C)C(=O)N1CCC[C@H]1C(=O)N[C@@H](Cc1ccc(O)cc1)C(=O)N1CCC[C@H]1C(=O)N[C@@H](CCCNC(=N)N)C(=O)N1CCC[C@H]1C(=O)O (H-[Gly(N-(CH2)3-guanidino)][Gly(N-(CH2)3-guanidino)]IRPRPPRLPRPRPRPLPYPRP-OH)	1 (≈ 2.9 µg/mL)		0.5 (≈ 1.45 µg/mL)	0.5 (≈ 1.45 µg/mL)	8 (≈ 23.2 µg/mL)
H-KKIRPRPPRLPRPRPRPLPYPRP-OH	4		4	2	16
H-RRIRPRPPRLPRPC-OH	> 128	128			
H-RRIRPRPPRLPRPRP-OH	32	16			

Continued, in another order:

MIC [1] [µM]	MIC [2] [µM]	Compound	MIC [3] [µM]	MIC [4] [µM]	MIC [5] [µM]
> 128	64	H-RRIRPRPPRLPRP-OH			
8	8	H-RRIRPRPPRLPRPRPC-OH			
0.5	0.5	H-RRIRPRPPRLPRPRPR-OH			
